# Measured values as given in patent US8268823B2, “Medical use of triazine derivatives” (University of Greenwich, priority 2006, dated 2012).
# Values joined by “and” are separate entries in the source; they are usually repeats but may differ in a detail not shown here. Equal entries are not always repeated. Where two headings read alike, the source gives them in different places.
# Tests used:
# [1] = molecular target: T1, DiHydroFolate Reductase (DHFR) (Rattus norvegicus, UniProt Q920D2); assay: inhibition of binding of [3H]methotrexate to rat liver homogenate supernatant; conditions: for IC50: rat liver supernatant
# T1 construct: from tissue; host or cells: rat liver homogenate supernatant (47,500 x g)
# T1 sequence (Q920D2 1-187): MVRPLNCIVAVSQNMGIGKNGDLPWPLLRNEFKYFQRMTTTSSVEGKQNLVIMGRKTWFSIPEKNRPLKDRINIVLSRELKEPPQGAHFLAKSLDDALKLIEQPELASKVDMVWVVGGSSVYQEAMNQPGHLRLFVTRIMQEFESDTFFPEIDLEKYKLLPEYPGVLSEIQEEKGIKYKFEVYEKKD
# Procedure: All steps were carried out at 4° (or on ice). Freshly dissected rat liver was dissected into 0.25M ice-cold Sucrose and subsequently homogenised (U-turrax) in 50 mM pH 6.0 phosphate buffer (10 ml/g tissue) containing 15 mM Dithiothreitol. The resulting homogenate was centrifuged @ 47,500×g for 20 min and supernatant (filtered through cotton wool to remove fatty lumps) stored @-80° before use (Rothenberg et al).
# The binding reaction was stopped by the addition of 50 μl of a charcoal suspension (consisting of charcoal, Bovine Serum Albumin and Dextran present in a weight ratio of 100:4:1 suspended in 50 mM pH 6.0 phosphate buffer. Samples were vortexed, allowed to stand for 2 minutes and charcoal was precipitated by microcentrifugation @ full speed for 5 min. Aliquots of clear supernatant were transferred to counting vials containing liquid scintillant for measurement of radioactivity using Liquid Scintillation Spectroscopy.
# Percentage inhibition values were calculated by comparison to this value.
# (§1) Data are presented as mean±sem of number of experiments indicated in brackets.
# sodium channel [2] = assay: veratrine-evoked uptake of [14C]guanidine into rat forebrain synaptosomes ([14C]guanidine flux); format: biochemical
# Procedure: The screening strategy is designed to select compounds with appropriate sodium channel blocking activity and low side effect liability. To this end all compounds are processed through the primary sodium channel assay (veratrine-evoked uptake of [^14C]guanidine into rat forebrain synaptosomes) and IC50 values computed from generated concentration-effect curves.
# Synaptosomes (heavy and light mitochondrial fraction containing synaptosomes) were prepared by transferring the forebrain (of known wet weight) to a glass Potter vessel to which 9 volumes ice-cold 0.25M sucrose had been added and homogenising, using a teflon pestle, by 8 ‘up and down strokes’ of a Braun Potter S motor driven homogeniser set to 900 rpm. The resulting homogenate was centrifuged at 1036×g at 4° for 10 min and the supernatant collected. The remaining pellet was resuspended, as above, in fresh ice-cold 0.25M sucrose and the centrifugation step repeated. The supernatant fractions were pooled and centrifuged at 40,000×g (average) at 4° for 15 min and the resulting pellet resuspended in the appropriate assay buffer at a concentration of 20-25 mg wet weight per ml appropriate assay buffer.
# Both assays were carried out using 14 ml polypropylene test tubes to which a range of concentrations of the compounds under test were added.
# Compounds under test were pre-incubated for 10 min at 30° in incubation buffer (50 mM pH 7.4 HEPES (adjusted to pH 7.4 with Tris base), 130 mM choline chloride, 5.5 mM D-glucose, 0.8 mm MgSO4 and 5 mM KCl) containing 7.5 mg original wet weight of tissue and 100 μg veratrine HCl in a final volume of 0.5 ml. […] A further 2×5 ml of ice-cold wash buffer was added to each tube and the vacuum filtration step repeated. The GF/C glass fibre filters were transferred to minivials and 4 ml Picofluor^40 liquid scintillant added using a Brandel™ deposit/dispense system. Radioactivity was measured using a Beckman Liquid Scintillation Counter.
# as §1
# sodium channel [3] = format: binding, rat
# [4] = system: 0.4 mm slices of rat hippocampus; assay: hippocampal slice assay: ATP after iodoacetate metabolic insult; conditions: for Emax: read-out: Max Protection (% v TTX)
# hERG potassium channel [5] = molecular target: T2, hERG potassium channel (Homo sapiens, UniProt Q12809); assay: in vitro
# hERG potassium channel [6] = molecular target: T2, hERG potassium channel; assay: inhibition of binding of [3H]astemizole to cell membranes expressing hERG; conditions: for selectivity ratio: human, cell membranes expressing hERG, probe [3H]astemizole
# [7] = read-out: [3H]methotrexate binding Inhibition (% @ assay conc'n), assay concentration 10 μM
# [8] = read-out: [3H]methotrexate binding Inhibition (% @ assay conc'n), assay concentration 99 μM
# [9] = Table 1, mean ± sem (n), read-out: [14C] guanidine uptake (synaptosomes), mean IC50
# [10] = Table 3, rat forebrain synaptosomes, read-out: [14C]guanidine flux Mean (IC50: μM)
# [11] = Table 5, read-out: [14C]guanidine flux IC50
# [12] = Table 1, synaptosomes, mean ± sem (n), read-out: [3H]BTX-B binding (synaptosomes), mean IC50
# [13] = Table 4, tissue prep'n Homogenate, read-out: [3H]BTX-B binding Mean (IC50: μM)
# [14] = Table 4, tissue prep'n Synaptosomes, read-out: [3H]BTX-B binding Mean (IC50: μM)
# [15] = Table 5, Synaptosome data, read-out: [3H]BTX-B IC50
# [16] = Rattus norvegicus, read-out: EC50 (max set @ 100)
# [17] = Rattus norvegicus, read-out: hippocampal slice EC50 (μM)
# [18] = hERG / [3H]BTX-B selectivity, ratio of extrapolated hERG IC50 to [3H]BTX-B IC50 (synaptosomes)
# [19] = hERG / [14C]guanidine flux selectivity, ratio of extrapolated hERG IC50 to [14C]guanidine flux IC50
# T2 sequence (Q12809 whole entry): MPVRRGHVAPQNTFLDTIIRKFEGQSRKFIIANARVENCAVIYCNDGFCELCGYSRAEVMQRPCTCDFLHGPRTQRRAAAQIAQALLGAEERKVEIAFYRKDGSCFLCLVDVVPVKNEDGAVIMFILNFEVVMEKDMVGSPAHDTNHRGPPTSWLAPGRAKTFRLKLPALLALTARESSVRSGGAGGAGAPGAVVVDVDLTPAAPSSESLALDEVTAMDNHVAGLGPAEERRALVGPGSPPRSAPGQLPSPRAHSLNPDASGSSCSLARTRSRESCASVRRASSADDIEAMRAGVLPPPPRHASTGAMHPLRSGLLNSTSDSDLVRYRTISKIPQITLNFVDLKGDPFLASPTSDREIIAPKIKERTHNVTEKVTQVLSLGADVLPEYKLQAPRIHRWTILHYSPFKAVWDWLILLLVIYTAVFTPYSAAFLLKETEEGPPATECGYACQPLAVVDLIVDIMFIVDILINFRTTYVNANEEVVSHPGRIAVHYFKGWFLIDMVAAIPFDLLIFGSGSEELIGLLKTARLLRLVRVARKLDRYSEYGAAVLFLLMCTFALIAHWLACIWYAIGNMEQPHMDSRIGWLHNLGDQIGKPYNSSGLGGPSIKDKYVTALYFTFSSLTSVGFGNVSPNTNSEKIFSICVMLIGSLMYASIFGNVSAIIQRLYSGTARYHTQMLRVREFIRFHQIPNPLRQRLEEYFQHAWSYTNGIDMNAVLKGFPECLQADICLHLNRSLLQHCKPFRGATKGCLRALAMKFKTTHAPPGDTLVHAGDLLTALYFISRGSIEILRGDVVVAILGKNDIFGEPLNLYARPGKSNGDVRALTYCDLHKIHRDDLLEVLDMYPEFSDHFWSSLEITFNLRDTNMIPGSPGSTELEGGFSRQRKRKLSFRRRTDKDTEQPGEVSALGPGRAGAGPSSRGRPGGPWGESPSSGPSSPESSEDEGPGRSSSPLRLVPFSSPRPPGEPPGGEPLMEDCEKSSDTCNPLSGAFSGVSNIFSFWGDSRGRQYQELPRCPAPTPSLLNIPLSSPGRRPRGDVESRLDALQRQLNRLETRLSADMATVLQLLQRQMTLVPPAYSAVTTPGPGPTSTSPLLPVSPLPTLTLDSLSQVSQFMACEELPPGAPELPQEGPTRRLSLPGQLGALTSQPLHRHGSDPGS
Structure (SMILES),"inhibition at 10 µM [1, 7] [%]","inhibition at 99 µM [1, 8] [%]",IC50 (sodium channel [2]; [10]) [µM],IC50 (sodium channel [2]; [11]) [µM],IC50 (sodium channel [3]; [14]) [µM],IC50 (sodium channel [3]; [15]) [µM],Emax ([4]; Rattus norvegicus) [%],"EC50 [4, 17] [µM]",inhibition at 10 µM (hERG potassium channel [5]) [%],selectivity ratio (hERG potassium channel [5]; [18]),IC50 (hERG potassium channel [6]) [µM],IC50 [1] [µM],selectivity ratio (hERG potassium channel [6]),other results
"Cn1nc(-c2cccc(Cl)c2Cl)c(N)nc1=N [Example 2, 5-amino-6-(2,3-dichlorophenyl)-2,3-dihydro-3-imino-2-methyl-1,2,4-triazine]",0,-3,35.9,35.9,7.2,7.2,98 ± 5,36.3,12,10.2,73.3,,,"IC50 (sodium channel [2]; [9]): 35.9 ± 1.8 µM; IC50 (sodium channel [3]; [12]): 7.4 ± 0.4 µM; IC50 (sodium channel [3]; [13]): 2.5 µM; EC50 [4, 16]: 37.4 µM; selectivity ratio (hERG potassium channel [5]; [19]): 2"
"N=c1nc(N)c(-c2cccc(Cl)c2Cl)nn1Cc1ccoc1 [Example 30, 5(3)-Amino-6-(2,3-dichlorophenyl)-2,3(2,5)-dihydro-3(5)-imino-2-(3-furanylmethyl)-1,2,4-triazine]",,,4.4,4.4,2.6,2.6,,,65,2.1,5.4,> 250,1.2,
"CC(C)Cn1nc(-c2cccc(Cl)c2Cl)c(N)nc1=N [Example 7, 5(3)-Amino-6-(2,3-dichlorophenyl)-2,3(2,5)-dihydro-3(5)-imino-2-isobutyl-1,2,4-triazine methanesulfonate]",-4,-2,2.9,,1,,47 ± 3,1.3,,,,,,
"CCCn1nc(-c2cc(Cl)cc(Cl)c2Cl)c(N)nc1=N [Example 34, 5(3)-Amino-6-(2,3,5-trichlorophenyl)-2,3(2,5)-dihydro-3(5)-imino-2-propyl-1,2,4-triazine]",,,1.3,1.3,0.5,0.5,37,9.8,62,12.3,6.1,> 300,,selectivity ratio (hERG potassium channel [5]; [19]): 4.7
"N=c1nc(N)c(-c2cccc(Cl)c2Cl)nn1Cc1ccccc1 [Example 9, 5(3)-Amino-6-(2,3-dichlorophenyl)-2,3(2,5)-dihydro-3(5)-imino-2-phenylmethyl-1,2,4-triazine hemi-methanesulfonate]",2,-4,4.8,,2.2,,,> 30,,,,,,
"N=c1nc(N)c(-c2cccc(Cl)c2Cl)nn1Cc1ccsc1 [Example 29, 5(3)-Amino-6-(2,3-dichlorophenyl)-2,3(2,5)-dihydro-3(5)-imino-2-(3-thienylmethyl)-1,2,4-triazine]",,,7.3,7.3,2.2,2.2,,,83,0.9,2,> 250,0.3,
"CCCCn1nc(-c2cccc(Cl)c2Cl)c(N)nc1=N [Example 8, 5(3)-Amino-6-(2,3-dichlorophenyl)-2,3(2,5)-dihydro-3(5)-imino-2-butyl-1,2,4-triazine]",-4,-2,2.1,,1.7,,46,10,,,,,,
"Nc1nnc(-c2cccc(Cl)c2Cl)c(N)n1 [Example 1, 5(3)-amino-6-(2,3-dichlorophenyl)-2,3(2,5)-dihydro-3(5)-imino-1,2,4-triazine, reference compound]",,,209,209,76.6,76.6,79,30.2,,,,,,"IC50 (sodium channel [2]; [9]): 186 ± 26.5 µM; pIC50 (uptake of [14C]guanidine) (sodium channel [2]; Table 8, listed as Lamotrigine): 3.75 ± 0.13 and 3.68 ± 0.27; IC50 (sodium channel [2]; Table 8, listed as Lamotrigine, read-out: IC50 (μM) (uptake of [14C]guanidine)): 178 µM and 209 µM; IC50 (sodium channel [3]; [12]): 82.6 ± 2.3 µM; IC50 (sodium channel [3]; [13]): 97.9 µM; EC50 [4, 16]: 33.1 µM"
"CN1CCN(c2ncc(-c3cc(Cl)cc(Cl)c3Cl)c(N)n2)CC1 [Sipatrigine, reference compound]",0,,,,,,90,10.7,,,1.5,,,"inhibition at 198 µM ([1]; read-out: [3H]methotrexate binding Inhibition (% @ assay conc'n), assay concentration 198 μM): -6%; EC50 [4, 16]: 12.6 µM; inhibition at 10 µM (hERG potassium channel [5]; hERG % inhibition @ 10 μM): 87%"
"Cn1nc(-c2cc(Cl)cc(Cl)c2Cl)c(N)nc1=N [Example 32, 5(3)-Amino-6-(2,3,5-trichlorophenyl)-2,3(2,5)-dihydro-3(5)-imino-2-methyl-1,2,4-triazine]",,,6.4,6.4,1.9,1.9,65 ± 7,5.9,33,10.7,20.3,> 250,,selectivity ratio (hERG potassium channel [5]; [19]): 3.2
"CCn1nc(-c2cccc(Cl)c2Cl)c(N)nc1=N [Example 3, 5(3)-Amino-6-(2,3-dichlorophenyl)-2,3(2,5)-dihydro-3(5)-imino-2-ethyl-1,2,4-triazine]",,,6.4,,3.7,,,,,,,,,"[3H]methotrexate binding Inhibition (% @ assay conc'n) ([1]; assay concentration 10 μM): 0%; [3H]methotrexate binding Inhibition (% @ assay conc'n) ([1]; assay concentration 99 μM): 1%; IC50 (sodium channel [3]; [13]): 0.9 µM; Max Protection (% v TTX) ([4]; compared with the effect of 1 μM TTX = 100% protection): 87.0 % v TTX; EC50 ([4]; read-out: EC50 (max set @ 100), data re-computed setting max @ 100%): 20 µM; EC50 ([4]; read-out: hippocampal slice EC50, protection of ATP after iodoacetate): 16 µM"
"Cn1nc(-c2cccc(Cl)c2F)c(N)nc1=N [Example 36, 5(3)-Amino-6-(3-chloro-2-fluorophenyl)-2,3(2,5)-dihydro-3(5)-imino-2-methyl-1,2,4-triazine]",,,129,129,,,,,33,,20.3,> 300,0.2,
"COc1cccc(Cn2nc(-c3cccc(Cl)c3Cl)c(N)nc2=N)c1 [Example 18, 5(3)-Amino-6-(2,3-dichlorophenyl)-2,3(2,5)-dihydro-3(5)-imino-2-(3-methoxy)phenylmethyl-1,2,4-triazine]",-4,-5,3.1,3.1,,,,,87,,1.5,,0.5,
"N=c1nc(N)c(-c2cccc(Cl)c2Cl)nn1CCC(F)(F)F [Example 39, 5(3)-Amino-6-(2,3-dichlorophenyl)-2,3(2,5)-dihydro-3(5)-imino-2-(3,3,3-trifluoropropyl)-1,2,4-triazine]",,,3.9,3.9,1.6,1.6,,,40,9.4,15,> 300,3.8,
